These antisense oligonucleotides have a phosphorothioate backbone; sugars and methylation of C are not fully specified.
Further: test concentration or dose not given here.

The target in one data set is RHOC. The following applies: ASO.
AGACACTTTCCTGTGAGC returned a remaining target (mRNA or protein) (fraction of control) of 0.31.
Sequence AGGCACCATCCCCAACGA returned a remaining target (mRNA or protein) (fraction of control) of 0.19.
Same read-out and setting: the figure for AGGGCAGGGCATAGGCGT is 0.69.
As for AGGTCTTCCCACAGGCAC, the remaining target (mRNA or protein) (fraction of control) turned out to be 0.6.
The same measure, in the same setting: the value for AGTTCTCAAAGACAGTAG was 0.62; that for ATGAGGAGGCAGGTCTTC was 0.59; that for CACTTTCCTGTGAGCCAG was 0.18.
On the same count and under the same terms, the value for CAGACCGAACGGGCTCCT was 0.35.
Still for that read-out and setting: the value for CATGAGGAAGGGCAGGGC was no less than 1; that for CCCCTCCGACGCTTGTTC was 0.34; that for CCGGCTGAAGTTCCCAGG was 0.58.
Turning to CCTGTGAGCCAGAAGTGT, the remaining target (mRNA or protein) (fraction of control) worked out at 0.31.
CTCAAACACCTCCCGCAC gave a remaining target (mRNA or protein) (fraction of control) of 0.66.
Same read-out and setting: the figure for CTCCCGCACTCCCTCCTT is 0.09.
CTCCTGGTGTGCTCGTCT yielded a remaining target (mRNA or protein) (fraction of control) of 0.33.
As to CTTGTTCTTGCGGACCTG, the remaining target (mRNA or protein) (fraction of control) is 0.28.
The sequence GAAAATGGAGCCTTCAGT showed a remaining target (mRNA or protein) (fraction of control) of 0.76.
The same measure, in the same setting: the value for GAGCCTTCAGTATGGAGC was 0.37.
The same measure, in the same setting: the figure for GAGCTGAGATGAAGTCAA is 0.71.
The same measure, in the same setting: the figure for GCAGGAGGGAACTGAAAA is 0.73; for GCTGAAGTTCCCAGGCTG it is 0.75.
Take GGAACTGAAAATGGAGCC: the remaining target (mRNA or protein) (fraction of control) worked out at 0.98.
In turn, GGAAGGGCAGGGCATAGG showed a remaining target (mRNA or protein) (fraction of control) of 0.79.
The same measure, in the same setting: the figure for GGAGGGAACTGAAAATGG is 0.87; for GGCACCATCCCCAACGAT it is 0.19; for GGCCATCTCAAACACCTC it is 0.36.
The same measure, in the same setting: the value for GTATGGAGCCCTCAGGAG was 0.4.
As to GTGTGCTCGTCTTGCCTC, the remaining target (mRNA or protein) (fraction of control) turned out to be 0.33.
The same measure, in the same setting: the value for TAAAGTGCTGGTGTGTGA was 0.61; that for TCAAAGACAGTAGGGACG was no less than 1; that for TCCCACAGGCACCATCCC was 0.3.
On the same count and under the same terms, the figure for TCGTCTTGCCTCAGGTCC is 0.21.
Regarding TGCAGAAACAACTCCAGG, the remaining target (mRNA or protein) (fraction of control) is no less than 1.
In the case of TGTTTTCCAGGCTGTCAG, the remaining target (mRNA or protein) (fraction of control) came out at 0.41.
On the same count and under the same terms, the value for TTCCTCAGACCGAACGGG was 0.43; that for TTCCTGTGAGCCAGAAGT was 0.31; that for TTCTCAAAGACAGTAGGG was 0.98.
Still for that read-out and setting: the value for TTGCTGAAGACGATGAGG was 0.77.

The target of another data set is MAP2K6. The conditions noted are these: ASO.
In turn, AAGAGAGGATTCAGGGAAGC gave a remaining target (mRNA or protein) (fraction of control) of no less than 1.
Same read-out and setting: the value for AATTTTAAGGCCAGGGTTTC was no less than 1; that for ACACATGGCAGGAGGGACAA was 0.78; that for AGAAGAAAACAAACAAACAA was 0.82.
The same measure, in the same setting: the figure for ATCTGTTCCTTTGGATTCAT is 0.73; for CAAGTGTCAGAAGAACCAAA it is 0.7; for CAGTTCATTCTATACTATAG it is 0.7.
CATTAGAAGGCTTGACGTCT: the remaining target (mRNA or protein) (fraction of control) was 0.67.
In turn, CATTTTCCCCTTTCCTTTGA displayed a remaining target (mRNA or protein) (fraction of control) of no less than 1.
The sequence CCCTAAAAGATGTGGTGATC gave a remaining target (mRNA or protein) (fraction of control) of no less than 1.
The same measure, in the same setting: the value for CCTTTCGACTGAGACATTTT was no less than 1.
The same measure, in the same setting: the figure for CGAGAAAGAACTTTTGCTGT is no less than 1; for CGCTGCTGAAGAAAGATGCG it is 0.85.
The same measure, in the same setting: the figure for CTACAAATCTACTTATAATT is 0.99; for CTGAGACATTTTCCCCTTTC it is 0.91; for CTTCACCCCGAAACCCACCA it is 0.34.
Consider CTTGCCTTTCGACTGAGACA, for which the remaining target (mRNA or protein) (fraction of control) came out at 0.58.
On the same count and under the same terms, the figure for GAATTTATCTAGTGATGTAT is no less than 1.
The same measure, in the same setting: the value for GACATTTTCCCCTTTCCTTT was 0.85; that for GACTGAGACATTTTCCCCTT was 0.88; that for GAGACATTTTCCCCTTTCCT was 0.66.
Still for that read-out and setting: the figure for GATGCATATTAAATAATTTC is 0.83; for GCCAGGGCTGGCAGCTAAAA it is 0.8.
On to GCCATAAAAGGTGACAGTGA, for which the remaining target (mRNA or protein) (fraction of control) worked out at 0.86.
The same measure, in the same setting: the figure for GCTCCAGGTCATCTGCCTTC is 0.65; for GGAAATCGAAGGATGGCCAA it is no less than 1.
On the same count and under the same terms, the figure for GGTGGGCCGAACCAGAAGCC is no less than 1; for GTGAATTGCCAAATAGACAC it is 0.8; for GTTTCTCTTGACCGATGCAG it is 0.55.
As to GTTTCTGTTCCTGGCTATTT, the remaining target (mRNA or protein) (fraction of control) was found to be 0.79.
Still for that read-out and setting: the value for TATCAAAGAATTACTCACTA was 0.85; that for TATGTAGGCCGTTCTTTGGA was 0.95; that for TATTTTCCCTGTCAATTACT was 0.99.
Same read-out and setting: the figure for TCGACTGAGACATTTTCCCC is 0.8; for TCTGTAGCTAGTTTTGCAAC it is 0.88; for TGCCTTTCGACTGAGACATT it is 0.67.
The same measure, in the same setting: the figure for TTAGTCTCCAAGAATCAGTT is 0.96; for TTGGAGTCTAAATCTCTAGG it is no less than 1.

In a further data set the target is PCK2. The following applies: ASO.
Sequence AAGATGTTAGTTAATATCAA had a remaining target (mRNA or protein) (fraction of control) of no less than 1.
Regarding AATGCCAGTGGGAAGCTGGC, the remaining target (mRNA or protein) (fraction of control) was found to be 0.88.
The same measure, in the same setting: the figure for ACCAGGCGGGAGTGGTACCG is 0.84; for AGACTAGGCCTCAGGTCACA it is no less than 1.
On the same count and under the same terms, the value for AGGAACCGAGCGGAGCCGGG was 0.68; that for AGTACACGCCACCATCACTG was 0.91.
The same measure, in the same setting: the value for CACCGTCTTGCTCTCTACTC was 0.85.
Take CACTTGACAAAGTCACCATC: the remaining target (mRNA or protein) (fraction of control) was no less than 1.
The same measure, in the same setting: the figure for CCAGTCGGGTCATAATACGC is 0.74; for CCCACAAACACCCCATGACG it is 0.35; for CCGGGCCAGCCGAGAGGCGA it is no less than 1.
On the same count and under the same terms, the figure for CTGCATGCAGCCTGGAAACC is 0.83; for CTTGCCCAGCAGGGAGTTGC it is no less than 1.
The same measure, in the same setting: the figure for CTTTGTGTTCTGCTGCAGCA is 0.49; for GAGCATTCTCCCCAAAGCCT it is 0.95; for GAGCTGCACCCCGATGCGGG it is no less than 1.
As to GCGTTGGGATTGGTGGTGGC, the remaining target (mRNA or protein) (fraction of control) turned out to be 0.82.
On the same count and under the same terms, the figure for GCTACGGCATGATGGCCAGC is 0.89.
On the same count and under the same terms, the value for GGACAGTCTTTGTGGGAAGG was no less than 1; that for GGCACTAGGGAAGGCGGCTG was 0.84.
GGCAGATCCTGGTTGACCTG had a remaining target (mRNA or protein) (fraction of control) of 0.81.
Same read-out and setting: the value for GGCCCGGAGTCGACCTTCAC was 0.68.
GGCGGTACAATGCGGCCATG had a remaining target (mRNA or protein) (fraction of control) of 0.81.
On the same count and under the same terms, the figure for GGGCCTCCCAGGCTGGGTCC is no less than 1.
The sequence GGTGATGCCCAGGATCAGCA registered a remaining target (mRNA or protein) (fraction of control) of 0.78.
The same measure, in the same setting: the figure for GTAGTGCCCGAAGTTGTAGC is 0.77; for TCACATTTTGTGCACACGTC it is 0.76; for TCACGAACCTCCTGTTCCCA it is 0.6.
Same read-out and setting: the value for TCACGCCGGAACCAGTTGAC was no less than 1.
The same measure, in the same setting: the value for TCCAGCCTGGCAGTGCAGGC was 0.75.
As to TCCATCACAGATGTGGATGC, the remaining target (mRNA or protein) (fraction of control) amounted to 0.87.
Sequence TCGGATGAGGCCCTGCTGCT yielded a remaining target (mRNA or protein) (fraction of control) of 0.86.
On to TGAGGCCGCTGAGATCCAAG, for which the remaining target (mRNA or protein) (fraction of control) came to 0.67.
Still for that read-out and setting: the value for TGATCTCCCGCTGGTCGGGC was 0.73; that for TGCCTTCCCTATTCCCAGAT was 0.82; that for TGCGGCCATGGCACCTGGGC was 0.55.
The same measure, in the same setting: the value for TGGGTGTCTCTCGGGCACTG was 0.9.
On the same count and under the same terms, the value for TTAAAATAGATAAGCATCTC was no less than 1; that for TTGCACGGCCACTGGCTCAC was 0.94.
The sequence TTTCCAGGGTTTGCCCAGCC displayed a remaining target (mRNA or protein) (fraction of control) of 0.55.
